Molecules are shown by their SMILES.

This experiment concerns the target T1, YSK4 (h) (Homo sapiens, UniProt Q56UN5).
T1 construct: purchased Millipore
T1 sequence (Q56UN5 1-1328): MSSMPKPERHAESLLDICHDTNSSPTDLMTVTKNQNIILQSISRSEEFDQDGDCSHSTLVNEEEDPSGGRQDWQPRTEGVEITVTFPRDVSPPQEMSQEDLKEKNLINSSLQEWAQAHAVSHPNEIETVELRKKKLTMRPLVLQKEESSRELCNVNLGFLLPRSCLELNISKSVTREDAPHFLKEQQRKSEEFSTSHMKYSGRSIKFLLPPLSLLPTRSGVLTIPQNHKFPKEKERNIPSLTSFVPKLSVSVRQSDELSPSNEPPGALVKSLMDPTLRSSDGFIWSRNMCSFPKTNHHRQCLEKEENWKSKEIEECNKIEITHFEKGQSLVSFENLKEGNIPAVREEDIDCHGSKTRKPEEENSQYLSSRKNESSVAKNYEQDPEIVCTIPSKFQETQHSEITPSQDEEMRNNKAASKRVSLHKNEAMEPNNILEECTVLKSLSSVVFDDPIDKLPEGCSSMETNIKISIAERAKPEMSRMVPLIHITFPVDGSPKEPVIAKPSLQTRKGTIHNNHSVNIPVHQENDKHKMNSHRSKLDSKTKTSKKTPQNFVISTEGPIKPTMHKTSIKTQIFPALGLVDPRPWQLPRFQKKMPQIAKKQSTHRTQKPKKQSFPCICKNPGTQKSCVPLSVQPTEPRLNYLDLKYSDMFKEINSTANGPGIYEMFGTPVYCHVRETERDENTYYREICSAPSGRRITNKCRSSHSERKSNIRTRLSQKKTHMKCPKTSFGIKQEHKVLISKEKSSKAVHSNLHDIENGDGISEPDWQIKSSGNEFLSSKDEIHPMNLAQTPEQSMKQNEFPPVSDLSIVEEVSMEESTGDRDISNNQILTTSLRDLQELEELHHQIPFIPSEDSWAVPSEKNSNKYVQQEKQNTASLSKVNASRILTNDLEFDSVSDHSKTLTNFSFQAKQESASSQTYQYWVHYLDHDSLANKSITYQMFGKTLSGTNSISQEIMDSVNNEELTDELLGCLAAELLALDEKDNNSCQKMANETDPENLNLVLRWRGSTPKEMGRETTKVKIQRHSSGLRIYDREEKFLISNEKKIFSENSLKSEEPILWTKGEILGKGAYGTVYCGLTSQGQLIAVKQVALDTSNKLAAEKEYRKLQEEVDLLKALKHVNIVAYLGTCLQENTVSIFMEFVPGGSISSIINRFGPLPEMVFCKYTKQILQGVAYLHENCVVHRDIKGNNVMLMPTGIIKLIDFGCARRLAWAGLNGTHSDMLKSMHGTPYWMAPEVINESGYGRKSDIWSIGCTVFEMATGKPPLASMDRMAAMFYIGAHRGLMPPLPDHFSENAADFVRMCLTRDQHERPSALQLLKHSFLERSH
Nature of the experiment: Commercial kinase activity assay (Millipore, 33P-ATP filter). Type of experiment: biochemical. The note with it: 10 μM test compound. The method, then: LOK (h) was incubated with 8 mM MOPS pH 7.0, 0.2 mM EDTA, 250 μM […], 10 mM MgAcetate and [γ-^33P-ATP] (specific activity approx. 500 cpm/pmol, concentration as required). The reaction was initiated by the addition of the MgATP mix. After incubation for 40 minutes at room temperature, the reaction was stopped by the addition of 3% phosphoric acid solution. 10 μL of the reaction was then spotted onto a P30 filtermat and washed three times for 5 minutes in 75 mM phosphoric acid and once in methanol prior to drying and scintillation counting. PI3K p110β/p85α (h) PI3K (p110β/p85α) (h) was incubated in assay buffer containing 10 μM phosphatidylinositol-4,5-bisphosphate and MgATP (concentration as required). The reaction was initiated by the addition of the MgATP mix. After incubation for 30 minutes at room temperature, the reaction was stopped by the addition of stop solution containing EDTA and biotinylated phosphatidylinositol-3,4,5-trisphosphate. Finally, detection buffer was added, which contains europium-labelled anti-GST monoclonal antibody, GST-tagged GRP1 PH domain and streptavidinallophycocyanin. The plate was then read in time-resolved fluorescence mode and the homogenous time-resolved fluorescence (HTRF®) signal determined according to the formula HTRF=10000×(Em665nm/Em620 nm). YSK4 (h) YSK4 (h) was incubated with 8 mM MOPS pH 7.0, 0.2 mM EDTA, 250 […], 10 mM MgAcetate and [γ-^33P-ATP] (specific activity approx. 500 cpm/pmol, concentration as required). The reaction was initiated by the addition of the MgATP mix. After incubation for 40 minutes at room temperature, the reaction was stopped by the addition of 3% phosphoric acid solution. 10 μL of the reaction was then spotted onto a P30 filtermat and washed three times for 5 minutes in 75 mM phosphoric acid and once in methanol prior to drying and scintillation counting. PI4KA (PI4K alpha) The 2× PI4KA (PI4K alpha)/PI Lipid Kinase Substrate mixture was prepared in 20 mM Tris, pH 7.5, 0.4% Triton X-100, 5 mM MgCl2, 0.5 mM EGTA. The final 10 μL Kinase Reaction consisted of 75-300 ng PI4KA (PI4K alpha) and 100 μM PI Lipid Kinase Substrate in 7.5 mM HEPES, 10 mM Tris, pH 7.5, 0.2% Triton X-100, 2.5 mM MgCl2, 0.25 mM EGTA. After the 1 hour Kinase Reaction incubation, 5 μL of Detection Mix consisting of a europium labeled anti-ADP antibody, an Alexa Fluor® 647 labeled ADP tracer, and EDTA (to stop the kinase reaction) was added to the assay well. ADP formed by the kinase reaction (in the absence of an inhibitor) displaced the Alexa Fluor® 647 labeled ADP tracer from the antibody, resulting in a decrease in the TR-FRET signal. […] PI4KB (PI4K beta) The 2× PI4KB (PI4K beta)/PI Lipid Kinase Substrate mixture was prepared in 50 mM HEPES pH 7.5, 0.1% CHAPS, 1 mM EGTA, 4 mM MgCl2. […]

`Nc1nc(N2CCN(C(=O)COc3ccc(Cl)cc3)CC2)c2nc(-c3cccnc3)sc2n1` [formula (1), 5-amino-7-[4-(4-chlorophenoxyacetyl)piperazin-1-yl]-2-(pyridin-3-yl)thiazolo[5,4-d]pyrimidine]: the Kinase activity is 108 percentage of control.

(Values after US9301961B2, “Autoimmune and inflammatory disorder therapy” (Katholieke Universiteit Leuven, K.U. Leuven R&D, priority 2011, dated 2016).)
